# Measurements from patent US7144982B2, “Polypeptides with therapeutic activity and methods of use” (University of Minnesota, priority 2000, dated 2006).
# Read-outs that look alike come from different tables or passages of the source.
# B1: B/PI: 55 kD protein B/PI, bactericidal/permeability increasing protein (protein, UniProt P17213 32-487, looked up)
# Bactericidal …: VNPGVVVRISQKGLDYASQQGTAALQKELKRIKIPDYSDSFKIKHLGKGHYSFYSMDIREFQLPSSQISMVPNVGLKFSISNANIKISGKWKAQKRFLKMSGNFDLSIEGMSISADLKLGSNPTSGKPTITCSSCSSHINSVHVHISKSKVGWLIQLFHKKIESALRNKMNSQVCEKVTNSVSSELQPYFQTLPVMTKIDSVAGINYGLVAPPATTAETLDVQMKGEFYSENHHNPPPFAPPVMEFPAAHDRMVYLGLSDYFFNTAGLVYQEAGVLKMTLRDDMIPKESKFRLTTKFFGTFLPEVAKKFPNMKIQIHVSASTPPHLSVQPTGLTFYPAVDVQAFAVLPNSSLASLFLIGMHTTGSMEVSAESNRLVGELKLDRLLLELKHSNIGPFPVELLQDIMNYIVPILVLPRVNEKLQKGFPLPTPARVQLYNVVLQPHQNFLLFGADVVYK
# How the values were obtained:
# E. coli J5 = test: Bactericidal assay, rough strain E. coli J5; type: cell-based; conditions: Table 1; E. coli J5; SD about ±30%
# Description: (§1) Pseudomonas aeruginosa type 1 is a clinical, smooth strain isolate serotyped by using the scheme of Homma, Japan. J. Exp. Med. 46, 329–336 (1976) and maintained in the lab by monthly transfer on blood agar plates. E. coli J96, IA2, and H5 are smooth strain, uropathogenic clinical isolates kindly maintained and provided by J. R. Johnson and described in Johnson et al., J. Infect. Disease 173, 920–926 (1996) for J96 and IA2 and in Johnson et al., J. Infect. Disease 173, 746–749 (1996) for H5. J5 is an E. coli rough strain initially referenced by G. R. Siber and discussed in Warren et al., Infect. Immunity 55, 1668–1673 (1987) and is analogous to the smooth strain E. coli 0111:B4 used in the BioWhittaker LAL endotoxin detection and quantitation kit described below. Gram-positive MN8 and MNHO are two patient isolates of Staphylococcus aureus, which were kindly provided by P. M. Schlievert and described in Bohach et al., Rev. Infect. Diseases 11, 75–82 (1989) for MNHO and in Schlievert et al., J. Infect. Diseases 147, 236–242 (1983) for MN8. All cultures are maintained on nutrient agar plates.
# (§2) Pyrogen-free solutions were used throughout the assay. Log phase bacteria were obtained by transferring an overnight culture or scraping crystals off −85° C. glycerol stocks of overnight cultures. Bacteria were washed and resuspended in 0.9% sodium chloride with adjustment to an optical density at 650 nm which yields 3×10^8 CFU/ml. Bacteria were then diluted 1:10 in 0.08 M citrate phosphate buffer, pH 7.0 (prepared by mixing 0.08 M citric acid with 0.08 M dibasic sodium phosphate). Bacteria (0.15 ml) were incubated with peptide in a final volume of 1.0 ml of buffer. The assay was done in 17×100 polypropylene tubes in a reciprocal water bath shaker at 37° C. for 30 minutes. Following this 30 minute (min) incubation, 10-fold dilutions were made in 0.9% sodium chloride. Dilutions were done to 10^−4 and 20 μl of each dilution was streaked across an agar plate. Gram-positive organisms were plated on nutrient agar plates containing 2% agar and Gram-negative organisms were plated on MacConkey agar (2%). Plates were incubated overnight at 37° C. and counted the next morning. The dilution containing 10–100 bacteria was counted and the number multiplied by 50 to adjust all counts to the number bacteria killed per milliliter. Peptide concentrations were converted to logarithm base ten and graphed. Bactericidal activity was determined by dose response where LD50 values were determined by best fits of a sigmoidal curve to the dose response data.
# [1] = tested on: Pseudomonas aeruginosa type 1; test: Bactericidal assay, P. aeruginosa (P.a.); type: cell-based; conditions: Table 1; P. aeruginosa; SD about ±30%
# Description: as §1, §2
# E. coli J96 = type: cell-based; conditions: Table 1; E. coli J96; SD about ±30%
# Description: as §1
# as §2, with “The assay was done in 17×100 polypropylene tubes in a reciprocal water bath shaker at 37° C. for 30 minutes. Following this 30 minute (min) incubation, 10-fold dilutions were made in 0.9% sodium chloride. Dilutions were done to 10^−4 and 20 μl of each dilution was streaked across an agar plate. Gram-positive organisms were plated on nutrient agar plates containing 2% agar and Gram-negative organisms were plated on MacConkey agar (2%).” left out, “Peptide concentrations were converted to logarithm base ten and graphed.” left out
# E. coli H5 = test: Bactericidal assay, smooth strain E. coli H5; type: cell-based; conditions: Table 1, SD about ±30%
# Description: as §1, with “Diseases 11, 75–82 (1989) for MNHO and in Schlievert et al., J. Infect. Diseases 147, 236–242 (1983) for MN8. All cultures are maintained on nutrient agar plates.” left out
# (§3) Pyrogen-free solutions were used throughout the assay. […] Plates were incubated overnight at 37° C. and counted the next morning. The dilution containing 10–100 bacteria was counted and the number multiplied by 50 to adjust all counts to the number bacteria killed per milliliter. […] Bactericidal activity was determined by dose response where LD50 values were determined by best fits of a sigmoidal curve to the dose response data.
# E. coli IA2 = test: Bactericidal assay, smooth strain E. coli IA2; type: cell-based; conditions: Table 1, SD about ±30%
# Description: as §1, with “Diseases 11, 75–82 (1989) for MNHO and in Schlievert et al., J. Infect. Diseases 147, 236–242 (1983) for MN8. All cultures are maintained on nutrient agar plates.” left out
# as §3
# [2] = tested on: Staphylococcus aureus MN8; test: Bactericidal assay, Gram-positive S. aureus MN8; type: cell-based; conditions: Table 1, SD about ±30%
# Description: as §1, with “Diseases 11, 75–82 (1989) for MNHO and in Schlievert et al., J. Infect. Diseases 147, 236–242 (1983) for MN8. All cultures are maintained on nutrient agar plates.” left out
# as §3
# [3] = tested on: Staphylococcus aureus MNHO; test: Bactericidal assay, Gram-positive S. aureus MNHO; type: cell-based; conditions: Table 1; S. aureus MNHO; SD about ±30%
# Description: as §1, §2
# E. coli 055:B5 LPS = test: Limulus amoebocyte lysate assay for LPS neutralization; type: biochemical
# Description: The ability of synthetic peptides to neutralize endotoxin was detected using the chromogenic QCL-1000 kit from BioWhittaker, Inc. (Walkersville, Md.) as described in their protocol. This method is quantitative for Gram-negative bacterial endotoxin (lipopolysaccharide, LPS). In the Limulus amebocyte lysate (LAL) assay, peptides that are active inhibit the LPS-mediated activation of a proenzyme (Young et al., J. Clin. Invest. 51, 1790–1797 (1972)) whose active form would release p-nitroaniline (pNA) from a colorless synthetic substrate (Ac-Ile-Glu-Ala-Arg-pNA), producing a yellow color (pNA) whose absorption is monitored spectrophotometrically at 405–410 nm. The initial rate of enzyme activation is proportional to the concentration of endotoxin present. The concentration of peptide required to bind to LPS and therefore to inhibit the Limulus amoebocyte lysate driven by 0.04 unit (or 0.01 ng) of E. coli 055:B5 LPS (from SIGMA) was determined by dose response.
# bacteria = conditions: Mayo et al. 1998; cited from earlier work
# P. aeruginosa = conditions: against P. aeruginosa; Lee et al. 1989; cited from earlier work
# [4] = literature value; read-out: LPS binding activity (IC50); cited from earlier work
# [5] = Table 1, SD about ±30%, read-out: LPS effect, IC50 for neutralization of LPS
Molecule,"LD50 bactericidal activity, Gram neg. rough J5 (E. coli J5)","LD50 bactericidal activity, Gram neg. smooth P.a. [1]","LD50 bactericidal activity, Gram neg. smooth J96 (E. coli J96)","LD50 bactericidal activity, Gram neg. smooth H5 (E. coli H5)","LD50 bactericidal activity, Gram neg. smooth IA2 (E. coli IA2)","LD50 bactericidal activity, Gram-positive MN8 [2]","LD50 bactericidal activity, Gram-positive MNHO [3]",IC50 (E. coli 055:B5 LPS; [5]) [µM],IC50 (E. coli 055:B5 LPS; read-out: IC50 LPS neutralization) [µM],bactericidal concentration range (bacteria),lethal concentration (P. aeruginosa) [µM],IC50 [4] [µM]
"BG-22: peptide 28 mer having the amino acid sequence from the β-sheet domain of bactericidal/permeability increasing (B/PI) protein (residues 82–108) (NANIKISGKWKAQKRFLKMSGNFDLSI; UniProt P17213 113-139, looked up, fragment) [reference compound]",0.09 10^−6 M,0.05 10^−6 M,0.52 10^−6 M,0.71 10^−6 M,0.32 10^−6 M,0.5 10^−6 M,0.63 10^−6 M,5,,,,
"SIQKLNVSMKLFRKQAKWKIIVKLNDGRELSLD [βpep-19, reference compound]",0.01 10^−6 M,0.03 10^−6 M,0.1 10^−6 M,0.71 10^−6 M,0.06 10^−6 M,0.25 10^−6 M,0.16 10^−6 M,2,~2,~10^−8 M,,
cecropin P1,,,,,,,,,,,6,
B1,,,,,,,,,,,,0.02
